# Test results taken from the supplement of paper PMC11208160.
# Experiment: recombinant UMI read abundance after kanamycin selection (control-corrected) (log10(CPM+1)); higher = more efficient recombination; extreme values may be limits of the assay; sequences stand for … in AGTGCAGAGAAAATCGGCCAGTTTTCTCTGCCTGCAGTCCGCATGCCGTGGGACCCCTTGGGTTCTAACCTGTTGCCTAGATTTATGCAGCGGACTGCCTTTCTCCCAAAGTGATAAACCGG…AGGTTGGTTTCACT; site = the 11-nt donor
# Summary of the method: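 In a pooled Escherichia coli screen for the IS621 bridge recombinase, donor and donor-binding-loop pairs were each placed with a 12-nt UMI on a plasmid bearing a promoterless kanamycin gene. This library was co-electroporated with a target plasmid encoding a fixed target and T7-inducible recombinase, and cells were plated either on IPTG (0.07 mM) plus kanamycin or without selection, in two replicates each. Recombinant UMIs were PCR-amplified across the donor–target junction and sequenced, and counts were converted to CPM, averaged over replicates, scaled by control-derived factors and reported as log10(CPM+1).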
row,Sequence,recombinant UMI read abundance (log10)
1,GGGGTGGCATGGACCGGTTTTCCCGGTAATCCGTATTTGGT (site GGGGTGGCTAC),0.659
2,GGGGTGGCATGGACCGGTTTTCCCGGTAATCCGTATTTGGT (site GGTGTGGCTAC),0.146
3,GGGTATCCATGGACCGGTTTTCCCGGTAATCCGTATTTGTT (site CGGAATCCTAA),0
4,GGGTATCCATGGACCGGTTTTCCCGGTAATCCGTATTTGTT (site GGGTATCCTAA),0.0203
5,GGGTCACCATGGACCGGTTTTCCCGGTAATCCGTATTTGCA (site GGGACACCTTG),0
6,GGGTCACCATGGACCGGTTTTCCCGGTAATCCGTATTTGCA (site GGGCCACCTTG),0
7,GGGTCACCATGGACCGGTTTTCCCGGTAATCCGTATTTGCA (site GGGGCACCTTG),0
8,GGGTCACCATGGACCGGTTTTCCCGGTAATCCGTATTTGCA (site GGGTCACCTTG),0
9,GGGTGTGCATGGACCGGTTTTCCCGGTAATCCGTATTTGGC (site GGGTGTGCTGC),3
10,GGGTTCCCATGGACCGGTTTTCCCGGTAATCCGTATTTGTC (site GGGTTCCCTGA),0
11,GGTAAACCATGGACCGGTTTTCCCGGTAATCCGTATTTGAA (site GGTAAACCTTT),0
12,GGTACGGCATGGACCGGTTTTCCCGGTAATCCGTATTTGTT (site GGTACGACTAA),0.00937
13,GGTACGGCATGGACCGGTTTTCCCGGTAATCCGTATTTGTT (site GGTACGCCTAA),0.0122
14,GGTACGGCATGGACCGGTTTTCCCGGTAATCCGTATTTGTT (site GGTACGGCTAA),0.0127
15,GGTACGGCATGGACCGGTTTTCCCGGTAATCCGTATTTGTT (site GGTACGTCTAA),0
16,GGTACGTCATGGACCGGTTTTCCCGGTAATCCGTATTTGCT (site GGTACGTCTAA),0.0386
17,GGTACGTCATGGACCGGTTTTCCCGGTAATCCGTATTTGCT (site GGTACGTCTAC),0.0226
18,GGTACGTCATGGACCGGTTTTCCCGGTAATCCGTATTTGCT (site GGTACGTCTAG),2
19,GGTACGTCATGGACCGGTTTTCCCGGTAATCCGTATTTGCT (site GGTACGTCTAT),0.00579
20,GGTACGTCATGGACCGGTTTTCCCGGTAATCCGTATTTGGT (site GGTACGTCTAA),0.00807
21,GGTACGTCATGGACCGGTTTTCCCGGTAATCCGTATTTGGT (site GGTACGTCTAC),1.33
22,GGTACGTCATGGACCGGTTTTCCCGGTAATCCGTATTTGGT (site GGTACGTCTAG),0
23,GGTACGTCATGGACCGGTTTTCCCGGTAATCCGTATTTGGT (site GGTACGTCTAT),0.339

row,Sequence,recombinant UMI read abundance (log10)
1,GGTACGTCATGGACCGGTTTTCCCGGTAATCCGTATTTGTG (site GGTACGTCTAA),0.0133
2,GGTACGTCATGGACCGGTTTTCCCGGTAATCCGTATTTGTG (site GGTACGTCTCA),0.338
3,GGTACGTCATGGACCGGTTTTCCCGGTAATCCGTATTTGTG (site GGTACGTCTGA),0
4,GGTACGTCATGGACCGGTTTTCCCGGTAATCCGTATTTGTG (site GGTACGTCTTA),0
5,GGTACGTCATGGACCGGTTTTCCCGGTAATCCGTATTTGTT (site AGTACGTCTAA),0.0112
6,GGTACGTCATGGACCGGTTTTCCCGGTAATCCGTATTTGTT (site CGTACGTCTAA),0
7,GGTACGTCATGGACCGGTTTTCCCGGTAATCCGTATTTGTT (site GATACGTCTAA),0.00543
8,GGTACGTCATGGACCGGTTTTCCCGGTAATCCGTATTTGTT (site GCTACGTCTAA),0.0161
9,GGTACGTCATGGACCGGTTTTCCCGGTAATCCGTATTTGTT (site GGAACGTCTAA),0.0323
10,GGTACGTCATGGACCGGTTTTCCCGGTAATCCGTATTTGTT (site GGCACGTCTAA),0.0185
11,GGTACGTCATGGACCGGTTTTCCCGGTAATCCGTATTTGTT (site GGGACGTCTAA),0.0133
12,GGTACGTCATGGACCGGTTTTCCCGGTAATCCGTATTTGTT (site GGTAAGTCTAA),0
13,GGTACGTCATGGACCGGTTTTCCCGGTAATCCGTATTTGTT (site GGTACATCTAA),0.535
14,GGTACGTCATGGACCGGTTTTCCCGGTAATCCGTATTTGTT (site GGTACCTCTAA),0.0198
15,GGTACGTCATGGACCGGTTTTCCCGGTAATCCGTATTTGTT (site GGTACGACTAA),0.0066
16,GGTACGTCATGGACCGGTTTTCCCGGTAATCCGTATTTGTT (site GGTACGCCTAA),0.0208
17,GGTACGTCATGGACCGGTTTTCCCGGTAATCCGTATTTGTT (site GGTACGGCTAA),0.0154
18,GGTACGTCATGGACCGGTTTTCCCGGTAATCCGTATTTGTT (site GGTACGTCTAA),0.31
19,GGTACGTCATGGACCGGTTTTCCCGGTAATCCGTATTTGTT (site GGTACGTCTAC),0
20,GGTACGTCATGGACCGGTTTTCCCGGTAATCCGTATTTGTT (site GGTACGTCTAG),0
21,GGTACGTCATGGACCGGTTTTCCCGGTAATCCGTATTTGTT (site GGTACGTCTAT),0
22,GGTACGTCATGGACCGGTTTTCCCGGTAATCCGTATTTGTT (site GGTACGTCTCA),0.0191
23,GGTACGTCATGGACCGGTTTTCCCGGTAATCCGTATTTGTT (site GGTACGTCTGA),0

row,Sequence,recombinant UMI read abundance (log10)
1,GGTACGTCATGGACCGGTTTTCCCGGTAATCCGTATTTGTT (site GGTACGTCTTA),0.0065
2,GGTACGTCATGGACCGGTTTTCCCGGTAATCCGTATTTGTT (site GGTACTTCTAA),0
3,GGTACGTCATGGACCGGTTTTCCCGGTAATCCGTATTTGTT (site GGTAGGTCTAA),0.00929
4,GGTACGTCATGGACCGGTTTTCCCGGTAATCCGTATTTGTT (site GGTATGTCTAA),0.00457
5,GGTACGTCATGGACCGGTTTTCCCGGTAATCCGTATTTGTT (site GGTCCGTCTAA),0.0113
6,GGTACGTCATGGACCGGTTTTCCCGGTAATCCGTATTTGTT (site GGTGCGTCTAA),0.00982
7,GGTACGTCATGGACCGGTTTTCCCGGTAATCCGTATTTGTT (site GGTTCGTCTAA),0
8,GGTACGTCATGGACCGGTTTTCCCGGTAATCCGTATTTGTT (site GTTACGTCTAA),0.0263
9,GGTACGTCATGGACCGGTTTTCCCGGTAATCCGTATTTGTT (site TGTACGTCTAA),0.0329
10,GGTACTTCATGGACCGGTTTTCCCGGTAATCCGTATTTGAT (site GGTACTTCTAT),0.4
11,GGTAGAACATGGACCGGTTTTCCCGGTAATCCGTATTTGTA (site GGTAGAACTTA),1.39
12,GGTAGCGCATGGACCGGTTTTCCCGGTAATCCGTATTTGTT (site GGTAGCGCTAA),1.5
13,GGTCAAACATGGACCGGTTTTCCCGGTAATCCGTATTTGTA (site GGTCAAACTTA),0.645
14,GGTCAAACATGGACCGGTTTTCCCGGTAATCCGTATTTGTA (site GGTCCAACTTA),0.0193
15,GGTCAAACATGGACCGGTTTTCCCGGTAATCCGTATTTGTA (site GGTCGAACTTA),0.00424
16,GGTCAAACATGGACCGGTTTTCCCGGTAATCCGTATTTGTA (site GGTCTAACTTA),0.0103
17,GGTCACGCATGGACCGGTTTTCCCGGTAATCCGTATTTGTC (site GGTCACGCTGA),2.56
18,GGTCAGTCATGGACCGGTTTTCCCGGTAATCCGTATTTGGA (site GGTCAGTCTTC),0.503
19,GGTCCAACATGGACCGGTTTTCCCGGTAATCCGTATTTGAT (site GGTCCAACTAT),0
20,GGTCCAACATGGACCGGTTTTCCCGGTAATCCGTATTTGGA (site GGTCCAACTTA),0.00455
21,GGTCCAACATGGACCGGTTTTCCCGGTAATCCGTATTTGGA (site GGTCCAACTTC),0.0919
22,GGTCCAACATGGACCGGTTTTCCCGGTAATCCGTATTTGGA (site GGTCCAACTTG),0.0106
